Data reported in ChEMBL document CHEMBL4393671, “Design of a Cyclin G Associated Kinase (GAK)/Epidermal Growth Factor Receptor (EGFR) Inhibitor Set to Interrogate the Relationship of EGFR and GAK in Chordoma” (J Med Chem, 2019).
Calls of active or inactive are those of the source. The calls are words filed in the database; no cut-off is given here.

Experiments:
cells [1] = format: functional, cell-based; settings: Homo sapiens, UCH1, 72 h
Description: Antiproliferative activity against human UCH1 cells measured after 72 hrs by alamar blue assay

cells [2] = format: functional, cell-based; settings: Homo sapiens, UCH2, 72 h
Description: Antiproliferative activity against human UCH2 cells measured after 72 hrs by alamar blue assay

cells [3] = format: ADME, cell-based; settings: Homo sapiens, WS1, 72 h
Description: Cytotoxicity against human WS1 cells measured after 72 hrs by alamar blue assay

[4] = molecular target: T1, Cyclin-G-associated kinase (Homo sapiens, UniProt O14976); experiment: Binding affinity to wild-type human partial length GAK (G13 to Y338 residues) expressed in bacterial expression system by Kinomescan method
T1 sequence (O14976 whole entry): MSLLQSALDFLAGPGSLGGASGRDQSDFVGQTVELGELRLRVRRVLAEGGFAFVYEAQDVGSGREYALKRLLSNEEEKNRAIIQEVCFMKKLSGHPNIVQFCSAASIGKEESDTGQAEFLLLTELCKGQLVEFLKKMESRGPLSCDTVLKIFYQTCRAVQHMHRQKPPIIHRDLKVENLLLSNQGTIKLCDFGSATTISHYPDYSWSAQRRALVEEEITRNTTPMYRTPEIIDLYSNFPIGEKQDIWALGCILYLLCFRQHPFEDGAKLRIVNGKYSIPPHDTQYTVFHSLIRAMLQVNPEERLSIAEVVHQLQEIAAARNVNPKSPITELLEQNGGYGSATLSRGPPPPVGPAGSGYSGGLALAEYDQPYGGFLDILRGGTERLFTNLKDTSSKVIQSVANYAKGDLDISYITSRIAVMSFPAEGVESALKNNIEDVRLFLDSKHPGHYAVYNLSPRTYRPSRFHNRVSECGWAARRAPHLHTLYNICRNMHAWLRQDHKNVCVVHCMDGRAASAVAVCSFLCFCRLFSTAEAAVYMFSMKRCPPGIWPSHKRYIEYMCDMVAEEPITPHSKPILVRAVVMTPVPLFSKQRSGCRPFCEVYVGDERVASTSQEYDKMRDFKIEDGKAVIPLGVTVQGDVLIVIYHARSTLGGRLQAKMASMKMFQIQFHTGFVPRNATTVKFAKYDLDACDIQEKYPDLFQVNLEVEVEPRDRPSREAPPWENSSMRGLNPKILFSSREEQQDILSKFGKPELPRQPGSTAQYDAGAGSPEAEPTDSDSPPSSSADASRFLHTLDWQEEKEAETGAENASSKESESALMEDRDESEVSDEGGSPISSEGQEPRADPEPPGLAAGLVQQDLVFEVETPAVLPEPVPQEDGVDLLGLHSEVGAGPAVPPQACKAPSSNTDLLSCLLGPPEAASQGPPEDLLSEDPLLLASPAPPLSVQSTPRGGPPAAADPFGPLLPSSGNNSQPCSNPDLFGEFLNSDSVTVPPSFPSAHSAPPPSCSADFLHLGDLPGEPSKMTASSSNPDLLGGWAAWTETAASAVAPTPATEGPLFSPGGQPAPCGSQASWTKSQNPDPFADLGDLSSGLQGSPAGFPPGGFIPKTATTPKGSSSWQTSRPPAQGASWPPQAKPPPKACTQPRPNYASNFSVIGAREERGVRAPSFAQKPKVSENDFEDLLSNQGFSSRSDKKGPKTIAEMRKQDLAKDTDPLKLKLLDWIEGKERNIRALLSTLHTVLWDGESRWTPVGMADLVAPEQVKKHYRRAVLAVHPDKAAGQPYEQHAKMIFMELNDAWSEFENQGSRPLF

[5] = molecular target: T2, Epidermal growth factor receptor (Homo sapiens, UniProt P00533); format: cell-based;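 on IC50: human A431 cells pretreated 90 min, then EGF stimulated, sandwich ELISA measured decrease in EGF-induced receptor autophosphorylation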;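 on Kd: KINOMEscan competition binding with recombinant partial wild-type human EGFR (residues R669–V1011) produced in bacteria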
Description: Inhibition of EGFR in human A431 cells assessed as reduction in EGF-stimulated EGFR autophosphorylation preincuabted for 90 mins followed by EGF-stimulation by sandwich-ELISA

[6] = molecular target: T2, Epidermal growth factor receptor
Description: Binding affinity to wild-type human partial length EGFR (R669 to V1011 residues) expressed in bacterial expression system by Kinomescan method

[7] = molecular target: T1, Cyclin-G-associated kinase; experiment: Inhibition of tracer 5 binding to human N-terminal nano luciferase-fused GAK expressed in HEK293 cells measured after 2 hrs by nanoBRET assay; format: cell-based
cells [8] = format: functional, cell-based; settings: Homo sapiens, 72 h
Description: Antiproliferative activity against human UMCHOR1 cells measured after 72 hrs by alamar blue assay

cells [9] = format: functional, cell-based; settings: Homo sapiens, 72 h; remark: listed apart in the source
Description: Antiproliferative activity against human UCH14 cells measured after 72 hrs by alamar blue assay

cells [10] = format: functional, cell-based; settings: Homo sapiens, 72 h; remark: listed apart in the source
Description: Antiproliferative activity against human CH22 cells measured after 72 hrs by alamar blue assay

cells [11] = format: functional, cell-based; settings: Homo sapiens, 72 h; remark: listed apart in the source
Description: Antiproliferative activity against human UCH12 cells measured after 72 hrs by alamar blue assay

cells [12] = format: functional, cell-based; settings: Homo sapiens, 72 h; remark: listed apart in the source
Description: Antiproliferative activity against human UCH7 cells measured after 72 hrs by alamar blue assay

[13] = molecular target: T2, Epidermal growth factor receptor; experiment: Binding affinity to wild-type human partial length EGFR (R669 to V1011 residues) expressed in bacterial expression system at 1 uM by Kinomescan method relative to control
[14] = molecular target: T3, Cyclin-G-associated kinase (Homo sapiens) (UniProt O14976); experiment: Inhibition of tracer 5 binding to human N-terminal nano luciferase-fused GAK expressed in HEK293 cells at 5 uM measured after 2 hrs by nanoBRET assay relative to control; format: cell-based
T3 sequence (whole entry): T1 sequence (O14976 whole entry)

[15] = molecular target: T3, Cyclin-G-associated kinase (Homo sapiens); experiment: Binding affinity to GAK in human SUM159 cell lysates by multiplexed inhibitor bead profiling-based LC-MS/MS analysis; format: subcellular; settings: Lysate
[16] = molecular target: Mitotic checkpoint serine/threonine-protein kinase BUB1 (Homo sapiens) (UniProt O43683); experiment: Binding affinity to BUB1 in human SUM159 cell lysates by multiplexed inhibitor bead profiling-based LC-MS/MS analysis; format: subcellular; settings: Lysate
[17] = molecular target: Pyruvate kinase PKM (Homo sapiens) (UniProt P14618); experiment: Binding affinity to PKM in human SUM159 cell lysates by multiplexed inhibitor bead profiling-based LC-MS/MS analysis; format: subcellular; settings: Lysate
[18] = molecular target: T2, Epidermal growth factor receptor; experiment: Inhibition of EGFR in human UCH2 cells assessed as reduction in EGF-induced EGFR phosphorylation at Y1068 residue at 10 uM preincubated for 4 hrs followed by EGF--stimulation and measured after 15 mins by Western blot analysis relative to control; format: cell-based
[19] = molecular target: T2, Epidermal growth factor receptor; experiment: Inhibition of EGFR in human UCH1 cells assessed as reduction in EGF-induced EGFR phosphorylation at Y1068 residue at 10 uM preincubated for 4 hrs followed by EGF--stimulation and measured after 15 mins by Western blot analysis relative to control; format: cell-based
[20] = Effect on total EGFR expression in human UCH2 cells at 1 to 10 uM measured after 4 hrs by Western blot analysis; format: ADME, cell-based
[21] = Effect on total EGFR expression in human UCH1 cells at 1 to 10 uM measured after 4 hrs by Western blot analysis; format: ADME, cell-based
[22] = molecular target: T2, Epidermal growth factor receptor; experiment: Inhibition of EGFR in human UCH2 cells assessed as reduction in EGF-induced EGFR phosphorylation at Y1068 residue at 1 uM preincubated for 4 hrs followed by EGF--stimulation and measured after 15 mins by Western blot analysis relative to control; format: cell-based
[23] = molecular target: T2, Epidermal growth factor receptor; experiment: Inhibition of EGFR in human UCH1 cells assessed as reduction in EGF-induced EGFR phosphorylation at Y1068 residue at 1 uM preincubated for 4 hrs followed by EGF--stimulation and measured after 15 mins by Western blot analysis relative to control; format: cell-based

T2 sequence (P00533 whole entry, the tested form may be a part): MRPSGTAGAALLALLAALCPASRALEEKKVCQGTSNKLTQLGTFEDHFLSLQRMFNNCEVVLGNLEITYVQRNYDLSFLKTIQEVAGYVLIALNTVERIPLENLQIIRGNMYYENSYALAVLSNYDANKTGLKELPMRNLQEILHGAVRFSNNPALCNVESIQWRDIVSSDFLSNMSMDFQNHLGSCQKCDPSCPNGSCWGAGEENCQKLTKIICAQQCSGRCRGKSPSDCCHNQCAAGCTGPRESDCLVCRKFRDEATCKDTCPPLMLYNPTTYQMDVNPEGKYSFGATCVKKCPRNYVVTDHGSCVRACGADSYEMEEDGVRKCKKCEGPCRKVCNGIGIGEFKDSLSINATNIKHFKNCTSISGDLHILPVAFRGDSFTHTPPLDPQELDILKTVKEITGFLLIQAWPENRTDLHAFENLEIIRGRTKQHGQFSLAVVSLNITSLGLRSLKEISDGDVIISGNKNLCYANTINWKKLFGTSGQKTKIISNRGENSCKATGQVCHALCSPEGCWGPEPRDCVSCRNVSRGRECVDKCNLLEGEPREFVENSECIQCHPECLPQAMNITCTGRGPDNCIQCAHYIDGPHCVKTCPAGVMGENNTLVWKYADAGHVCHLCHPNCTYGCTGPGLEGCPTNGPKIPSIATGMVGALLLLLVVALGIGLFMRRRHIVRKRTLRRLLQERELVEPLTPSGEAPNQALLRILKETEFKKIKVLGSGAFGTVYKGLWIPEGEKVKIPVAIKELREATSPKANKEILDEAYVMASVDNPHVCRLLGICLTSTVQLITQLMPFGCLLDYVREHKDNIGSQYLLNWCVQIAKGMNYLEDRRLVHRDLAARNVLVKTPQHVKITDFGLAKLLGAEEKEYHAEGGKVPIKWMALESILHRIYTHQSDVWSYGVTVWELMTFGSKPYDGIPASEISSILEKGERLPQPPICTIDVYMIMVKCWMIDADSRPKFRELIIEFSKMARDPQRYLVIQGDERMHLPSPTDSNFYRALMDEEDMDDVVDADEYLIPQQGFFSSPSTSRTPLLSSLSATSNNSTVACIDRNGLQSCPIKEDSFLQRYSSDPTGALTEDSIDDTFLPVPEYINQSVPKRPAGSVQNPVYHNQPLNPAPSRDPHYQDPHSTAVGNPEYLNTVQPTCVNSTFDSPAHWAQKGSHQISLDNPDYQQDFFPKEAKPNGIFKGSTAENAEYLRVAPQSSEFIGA
Mitotic checkpoint serine/threonine-protein kinase BUB1 (Homo sapiens), sequence (O43683 whole entry, looked up): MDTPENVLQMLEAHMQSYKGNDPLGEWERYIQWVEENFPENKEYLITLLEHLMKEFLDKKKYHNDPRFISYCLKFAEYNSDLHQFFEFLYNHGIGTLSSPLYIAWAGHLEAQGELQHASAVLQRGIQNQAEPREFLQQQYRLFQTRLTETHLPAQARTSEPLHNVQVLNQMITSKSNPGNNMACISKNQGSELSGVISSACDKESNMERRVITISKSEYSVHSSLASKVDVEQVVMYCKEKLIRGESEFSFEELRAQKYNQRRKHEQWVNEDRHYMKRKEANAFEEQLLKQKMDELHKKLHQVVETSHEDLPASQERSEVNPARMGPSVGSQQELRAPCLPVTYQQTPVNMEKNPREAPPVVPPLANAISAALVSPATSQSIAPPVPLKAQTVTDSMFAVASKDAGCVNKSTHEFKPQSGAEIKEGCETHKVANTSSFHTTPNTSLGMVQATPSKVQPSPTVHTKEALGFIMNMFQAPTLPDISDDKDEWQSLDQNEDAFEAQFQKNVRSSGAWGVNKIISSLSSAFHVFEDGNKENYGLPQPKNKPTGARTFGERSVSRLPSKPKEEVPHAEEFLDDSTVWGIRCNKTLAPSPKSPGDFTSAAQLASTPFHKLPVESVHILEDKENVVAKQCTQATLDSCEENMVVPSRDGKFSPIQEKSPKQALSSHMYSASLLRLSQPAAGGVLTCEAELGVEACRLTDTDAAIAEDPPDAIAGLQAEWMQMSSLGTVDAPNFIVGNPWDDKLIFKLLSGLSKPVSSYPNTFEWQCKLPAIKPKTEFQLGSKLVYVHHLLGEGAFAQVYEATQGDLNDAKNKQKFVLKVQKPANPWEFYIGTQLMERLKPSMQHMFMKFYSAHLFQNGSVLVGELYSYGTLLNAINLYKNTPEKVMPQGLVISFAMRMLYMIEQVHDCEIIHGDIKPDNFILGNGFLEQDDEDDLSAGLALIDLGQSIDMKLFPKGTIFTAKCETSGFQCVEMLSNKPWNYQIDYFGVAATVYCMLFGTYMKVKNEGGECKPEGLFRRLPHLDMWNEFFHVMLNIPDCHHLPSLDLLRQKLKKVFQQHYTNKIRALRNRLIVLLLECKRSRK
Pyruvate kinase PKM (Homo sapiens), sequence (P14618 2-531 limits assumed): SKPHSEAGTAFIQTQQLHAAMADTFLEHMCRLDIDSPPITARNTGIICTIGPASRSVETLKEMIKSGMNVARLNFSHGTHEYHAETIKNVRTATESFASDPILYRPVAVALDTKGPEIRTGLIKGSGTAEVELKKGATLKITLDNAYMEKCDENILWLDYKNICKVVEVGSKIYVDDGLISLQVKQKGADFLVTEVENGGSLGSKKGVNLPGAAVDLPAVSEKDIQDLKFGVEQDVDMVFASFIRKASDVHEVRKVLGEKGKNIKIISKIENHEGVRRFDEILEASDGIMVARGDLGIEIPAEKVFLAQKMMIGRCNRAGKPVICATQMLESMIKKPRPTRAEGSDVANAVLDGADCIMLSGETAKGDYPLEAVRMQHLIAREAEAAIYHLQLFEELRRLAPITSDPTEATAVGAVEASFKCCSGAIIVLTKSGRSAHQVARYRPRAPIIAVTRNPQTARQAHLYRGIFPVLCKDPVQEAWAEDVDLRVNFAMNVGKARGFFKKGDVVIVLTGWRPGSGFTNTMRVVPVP

IC50 (cells [1])	IC50 (cells [2])	IC50 (cells [3])	Kd [4]	IC50 [5]	Kd [6]	IC50 [7]	SMILES	also measured
0.09 µM	1.6 µM	–	–	–	–	–	CCOc1cc2ncc(C#N)c(Nc3ccc(F)c(Cl)c3)c2cc1NC(=O)/C=C/CN(C)C [PELITINIB]	–
11 µM	> 10 µM	> 50 µM	0.00042 µM	7.1 µM	0.0074 µM	0.0024 µM	COc1cc2ncc(C#N)c(Nc3cc(OC)c(OC)c(OC)c3)c2cc1OC	–
11 µM	25 µM	14 µM	–	27 µM	0.41 µM	0.023 µM	COc1cc2nccc(Nc3cc(OC)c(OC)c(OC)c3)c2cc1OC	IC50 (cells [8]): 24 µM; IC50 (cells [9]): 19 µM; IC50 (cells [10]): 12 µM; IC50 (cells [11]): 33 µM; IC50 (cells [12]): 30 µM
7.3 µM	> 10 µM	28 µM	0.01 µM	–	–	0.35 µM	COc1cc2ncnc(Nc3cc(OC)c(OC)c(OC)c3)c2cc1OC	–
8.8 µM	> 50 µM	14 µM	0.012 µM	0.09 µM	0.0024 µM	0.13 µM	COc1cc2ncc(C#N)c(Nc3cccc(Br)c3)c2cc1OC	–
0.05 µM	2.7 µM	–	–	–	–	–	COc1cc2ncnc(Nc3ccc(F)c(Cl)c3)c2cc1NC(=O)/C=C/CN1CCCCC1 [DACOMITINIB ANHYDROUS]	–
17 µM	> 50 µM	> 50 µM	0.0026 µM	0.061 µM	0.0018 µM	0.031 µM	C#Cc1cccc(Nc2c(C#N)cnc3cc(OC)c(OC)cc23)c1	–
0.66 µM	26 µM	9.7 µM	–	–	–	0.26 µM	COc1cc2ncnc(Nc3cccc(Br)c3)c2cc1OC	–
> 50 µM	> 50 µM	11 µM	–	> 50 µM	–	–	COc1cc(Nc2ccnc3ccc(Br)cc23)cc(OC)c1OC	Activity [13]: < 50%
7.6 µM	16 µM	12 µM	1.2 µM	0.34 µM	0.39 µM	–	C#Cc1cccc(Nc2ccnc3cc(OCCOC)c(OCCOC)cc23)c1	–
37 µM	> 50 µM	49 µM	–	> 50 µM	–	–	COc1cc(Nc2cc(C)nc3ccc(C(F)(F)F)cc23)cc(OC)c1OC	inhibition [14]: 0%
0.42 µM	5.7 µM	–	–	–	–	–	CNC(=O)CN1CCC(Oc2cc3c(Nc4cccc(Cl)c4F)ncnc3cc2OC)CC1 [SAPITINIB]	–
0.11 µM	8.1 µM	–	–	–	–	–	C=CC(=O)N1CCC(Oc2cc3c(Nc4ccc(Cl)c(Cl)c4F)ncnc3cc2OC)CC1 [POZIOTINIB]	–
13 µM	> 50 µM	> 10 µM	5 µM	< 0.015 µM	0.0013 µM	–	COc1cc2ncnc(Nc3ccc(OCc4cccc(F)c4)c(Cl)c3)c2cc1OC	inhibition [14]: 12%
5.5 µM	2.4 µM	–	–	–	–	–	CCOc1cc2ncc(C#N)c(Nc3ccc(OCc4ccccn4)c(Cl)c3)c2cc1NC(=O)/C=C/CN(C)C [NERATINIB]	–
0.15 µM	1.1 µM	–	–	–	–	–	COc1cc2c(Nc3ccc(Cl)c(Cl)c3F)ncnc2cc1OC[C@@H]1C[C@@H]2CN(C)C[C@@H]2C1 [TESEVATINIB]	–
> 50 µM	> 50 µM	> 50 µM	–	2.2 µM	–	–	COc1cc(N(C)c2ccnc3ccc(C(F)(F)F)cc23)cc(OC)c1OC	inhibition [14]: 7%
15 µM	36 µM	–	–	–	–	–	COc1cc(Nc2c(C#N)cnc3cc(OCCCN4CCN(C)CC4)c(OC)cc23)c(Cl)cc1Cl [BOSUTINIB]	–
> 50 µM	33 µM	21 µM	–	> 50 µM	–	–	COc1cc(Nc2ccnc3ccc(C(F)(F)F)cc23)cc(OC)c1OC	Activity [13]: < 50%
25 µM	> 50 µM	> 50 µM	0.15 µM	2.4 µM	0.053 µM	2.6 µM	COCCOc1cc2ncnc(Nc3cc(OC)c(OC)c(OC)c3)c2cc1OCCOC	–
4.3 µM	28 µM	–	–	–	–	–	CN1CCN(CCOc2cc(OC3CCOCC3)c3c(Nc4c(Cl)ccc5c4OCO5)ncnc3c2)CC1 [SARACATINIB]	–
50 µM	> 50 µM	45 µM	0.19 µM	> 50 µM	6.1 µM	–	COc1cc(Nc2ncnc3ccc(C(F)(F)F)cc23)cc(OC)c1OC	inhibition [14]: 60%
0.1 µM	6.4 µM	–	–	–	–	–	CN(C)C/C=C/C(=O)Nc1cc2c(Nc3ccc(F)c(Cl)c3)ncnc2cc1O[C@H]1CCOC1 [AFATINIB]	–
3.6 µM	7.9 µM	2.9 µM	0.24 µM	–	–	0.51 µM	COc1cc2nccc(Nc3cccc(Br)c3)c2cc1OC	Activity [15]: Active; IC50 (cells [9]): > 50 µM; IC50 (cells [10]): 6.5 µM; IC50 (cells [11]): > 50 µM; IC50 (cells [12]): > 50 µM; Activity [16]: Active; Activity [17]: Active
0.08 µM	17 µM	–	–	–	–	–	C=CC(=O)Nc1cc2c(Nc3ccc(F)c(Cl)c3)ncnc2cc1OCCCN1CCOCC1 [CANERTINIB]	–
0.92 µM	> 50 µM	4.4 µM	0.0068 µM	–	0.00055 µM	0.072 µM	C#Cc1cccc(Nc2ncnc3cc(OC)c(OC)cc23)c1	IC50 (cells [8]): 18 µM; Activity [15]: Active; IC50 (cells [9]): > 50 µM; IC50 (cells [10]): > 50 µM; IC50 (cells [11]): > 50 µM; inhibition [18]: 100%; inhibition [19]: 100%; Activity [20]: Non-Toxic; IC50 (cells [12]): 23 µM; Activity [21]: Non-Toxic; inhibition [22]: 100%; inhibition [23]: 63.4%
1 µM	4.2 µM	–	–	–	–	–	COc1cc2/c(=N/c3ccc(Br)cc3F)nc[nH]c2cc1OCC1CCN(C)CC1 [VANDETANIB]	–
> 50 µM	30 µM	> 50 µM	–	> 50 µM	–	–	CC(C)(C)S(=O)(=O)c1cc2c(Nc3ccc4scnc4c3)ncnc2cc1OCCO	inhibition [14]: 0%
